“Also recorded” adds a separate entry of the source.
How the values were obtained:
C. elegans = experiment: Conjugate uptake in C. elegans (dye and praziquantel conjugates, fluorescence microscopy); type: in vivo, Caenorhabditis elegans; details: 50 μM; for viability of the nematodes: readings up to 72 h
Description: Nematode Growth Media (NGM) plates containing C. elegans were washed with 1.0-1.5 mL of standard M9 buffer and the washes were collected in an Eppendorf tube. The liquid containing the C. elegans was then spun for 1 min at room temperature at 10,000 rpm. The supernatant was removed, and fresh M9 buffer was added (500 μL) to generate a new stock solution of M9 buffer containing the C. elegans.
A C. elegans suspension (100 μL) was added a defined amount of M9 buffer (determined by the final desired concentration of compound to be tested: 399 μL in the case of the BODIPY tagged derivatives) contained within a separate Eppendorf tube. To this was then added a 25 mM solution of the compound in DMSO (1 μL). The resulting suspension was mixed using a vortex instrument.
The resulting mixture was incubated at room temperature for 2 to 4 h. in the dark (using aluminium foil to screen the tube, which was also stored in a cabinet).
Other samples were incubated overnight. Here, OP50 bacteria (3 μL) were added to the worms for feeding purposes, and the worms were kept in the dark at 20° C.
After the incubation, the tube contents were mixed gently by hand (typically by simple rotation of the tube), so as to achieve a homogenous suspension. A sample of the suspension (250 μL) was taken and mixed with M9 buffer (500 μL). The resulting suspension was placed in a centrifuge and spun at room temperature at 10,000 rpm for 1 min. The supernatant was removed, and the washing process was repeated twice more, each time using further quantities of fresh M9 buffer (500 μL each time). After the final washing sufficient supernatant was removed so as to leave a final sample volume of approximate 30 μL.
A 1.5% agarose solution in water was pre-warmed for 60 to 90 s. in a standard household style microwave (set to Power 4). Two drops of this solution was removed and placed on a glass slide. The glass slide was covered with a second glass slide. After 1 min., the slides were slid carefully apart, with the agarose remaining on one of the slides. Onto this slide was placed an aliquot of the final C. elegans solution (15 to 20 μL). To this was added a 20 mM sodium azide solution (5 μL) to inhibit nematode mobility. Vaseline was then placed around the agarose area before replacing the second slide. The slides were not pressed together.
The nematodes were then analysed using a Zeiss Axiskop 2 Plus microscope with a Hamamatsu Orca-ER (CA 742-95) camera. The images were resolved using OpenLab on a Mac operating system.
Compounds 1-11 were evaluated after 3 h and overnight incubation at a 50 μM concentration using the general uptake protocol described for C. elegans.
In order to compare the ability of a conjugate to improve the uptake of the drug praziquantel, two praziquantel derivatives were generated. Praziquantel was tagged with a BODIPY fluorescent tag (compound 12) and incorporated into a conjugate of the invention (compound 13). Compounds 12 and 13 were evaluated at a concentration of 50 μM using the C. elegans uptake protocol described above for compounds 1-11. Microscopic readings were taken after 3, 24 and 72 h.

L. passim strain PRA-403 = experiment: Lotmaria passim parasite uptake test; type: cell-based; details: room temperature, 45 min; for uptake in L. passim (fluorescence intensity, microplate reader): 1 μM and 100 μM
Description: 100 mM stock solutions of BODIPY derivatives were prepared with dimethylsulfoxide (DMSO). L passim strain PRA-403 (ATCC) was cultured in modified medium for C. bombi (Tognazzo et al.). The parasite culture was centrifuged, supernatant was removed and 500 μL of L passim medium with compound (final concentration 500, 100, 10 or 1 μM for BODIPY derivatives) or DMSO (0.1%) control was added. Incubated for 45 min at room temperature.
Uptake tests were performed at 1 μM and 100 μM final concentration of CJ-BODIPY derivatives. After incubation at room temperature for 45 min, fluorescence intensities were evaluated using a microplate reader.

[1] = system: gastrointestinal system (crop, midgut and rectum) of adult honey bees; experiment: Honey bee gut uptake test; set-up: species or system Apis mellifera; details: 100 μM, 33° C., 45 min
Description: Honey bee (A. mellifera) hives were obtained and allowed to feed ab libitum spring to autumn. During the winter period, pollen mixed with 50% (v/v) sucrose was added to the honey bee hives in order to provide sufficient food. Honey bees were dissected and gastrointestinal system was removed including the crop, midgut and rectum, and added immediately to 500 μL of the delivery vehicle to be tested sample diluted with PBS at 100 μM final concentration or DMSO (0.1%) control. The mixture was incubated for 45 min at 33° C.
The gastrointestinal system (crop, midgut and rectum) of adult honey bees was extracted, and incubated with derivatives 1, 2, 8 and 11 at 100 μM and 33° C. for 45 min.

| SMILES | uptake compared to other compounds (C. elegans; 3 h incubation) | uptake: location of fluorescence in C. elegans (C. elegans; 3 h incubation) | uptake: location of fluorescence in C. elegans (C. elegans; 20 h / overnight incubation) | uptake in L. passim (fluorescence intensity, microplate reader) (L. passim strain PRA-403) | uptake in L. passim (fluorescence microscopy) (L. passim strain PRA-403; 10 μM) | fluorescence in honey bee gut (crop, midgut, rectum) [1] | increase in uptake of compound 13 compared to compound 12 (C. elegans; 20 h incubation) | uptake: location of fluorescence in C. elegans (C. elegans; 24 h incubation) | uptake: location of fluorescence in C. elegans (C. elegans; 72 h incubation) | viability of the nematodes (C. elegans) |
| --- | --- | --- | --- | --- | --- | --- | --- | --- | --- | --- |
| CC1=CC(C)=[N+]2C1=Cc1ccc(CCCn3cc(CCNC(=O)/C=C\NC(=O)[C@H](O)C(C)(C)CO)nn3)n1[B-]2(F)F [Compound 8, (Z)—N-((((3-[4,4-Difluoro-5,7-dimethyl-4-bora-3a,4a-diaza-s-indacene-3-yl]propyl)-1H-1,2,3-triazol-4-yl)ethylamino)-3-oxoprop-1-enyl)-2,4-dihydroxy-3,3-dimethylbutanamide] | second largest uptake observed compared to compounds 1 to 7 | visible in the gut cells and gut lumen and to a lesser extent into the pharynx of larvae; also recorded: In adults, fluorescence was observed in the pharynx, the gut lumen, the gut cells, and eggs | fluorescence was present in the pharynx, gut lumen and gut cells of the larvae; also recorded: In adults, fluorescence was detected in the pharynx, gut lumen and gut cells, but not in the embryos | relatively low uptake | displayed fluorescence surrounding the cell membrane but not in the cytoplasm | slight fluorescence in midgut and rectum, but none in the crop | – | – | – | – |
| CC1=CC(C)=[N+]2C1=Cc1ccc(CCCn3cc(CCNC(=O)/C=C\NC(=O)[C@H]4OC(C)(C)OCC4(C)C)nn3)n1[B-]2(F)F [Compound 4, (Z)—N-((((3-[4,4-Difluoro-5,7-dimethyl-4-bora-3a,4a-diaza-s-indacene-3-yl]propyl)-1H-1,2,3-triazol-4-yl)ethylamino)-3-oxoprop-1-enyl)-2,2,5,5-tetramethyl-1,3-dioxane-4-carboxamide] | – | traces of compound 4 were present in the gut cells of larval stages | fluorescence was detected in the pharynx and the gut cells of the larval stages as well as in the early stage of egg development | one of the lowest amounts of uptake | – | – | – | – | – | – |
| CC1=CC(C)=[N+]2C1=Cc1ccc(CCCn3cc(CCNC(=O)/C=C\NC(=O)[C@H](O)C(C)(C)CO)nn3)n1[B-]2(F)F [Compound 6, (Z)—N-((((3-[4,4-Difluoro-5,7-dimethyl-4-bora-3a,4a-diaza-s-indacene-3-yl]propyl)-1H-1,2,3-triazol-4-yl)ethylamino)-3-oxoprop-1-enyl)-2,4-dihydroxy-3,3-dimethylbutanamide] | much lower degree than the enantiomeric analogue compound 8 | visible in the gut cells and gut lumen of larval stages and in a lesser extent in the pharynx; also recorded: In adults, fluorescence was located in the pharynx, gut lumen and gut cells; also recorded: Fluorescence was not observed in the embryos | fluorescence was present in the gut lumen and gut cells, and to a smaller degree in the pharynx of the larvae; also recorded: Fluorescence was also present in the pharynx, gut cells and gut lumen of the adults as well as in the early stages of egg development; also recorded: Fluorescence was not observed in the embryos | – | – | – | – | – | – | – |
| CC1(C)OCC(C)(C)[C@H](C(=O)N/C=C/C(=O)NCCc2cn(CCCC3=[N+]4C(=Cc5ccc(CCC(=O)N6CC(=O)N7CCc8ccccc8C7C6)n5[B-]4(F)F)C=C3)nn2)O1 (stereo partly drawn) [Compound 13, 5,5-Difluoro-7-(3-oxo-3-(4-oxo-3,4,6,7-tetrahydro-1H-pyrazino[2,1-a]isoquinolin-2(11bH)-yl)propyl)-3-(3-(4-(2-((E)-3-((R)-2,2,5,5-tetramethyl-1,3-dioxane-4-carboxamido)acrylamido)ethyl)-1H-1,2,3-triazol-1-yl)propyl)-5H-dipyrrolo[1,—2-c:2′,1′-f][1,3,2]diazaborinin-4-ium-5-uide] | – | strongly located in the pharynx, gut cells and gut lumen of the larval stages; also recorded: In the adult nematodes, compound 13 was strongly located in the pharynx, gut cells and gut lumen, whilst not visible in the embryos | – | – | – | – | threefold increase | strongly observed in the pharynx, gut cells and gut lumen of the larva | still strongly visible in the pharynx, gut lumen and get cells of the larvae; also recorded: In the case of the adult nematodes, compound 13 was strongly visible in the pharynx and in the gut lumen, as well as in the embryos and eggs | remained viable with no apparent detrimental effect |
| CC1=CC(C)=[N+]2C1=Cc1ccc(CCC(=O)N3CC(=O)N4CCc5ccccc5C4C3)n1[B-]2(F)F (stereo not drawn) [Compound 12, 5,5-Difluoro-1,3-dimethyl-7-(3-oxo-3-(4-oxo-3,4,6,7-tetrahydro-1-pyrazino[2,1-a]isoquinolin 2(11 bH)-yl)propyl)-5H-dipyrrolo[1,2-c:2′,1′-f][1,3,2]diazaborinin-4-ium-5-uide, reference compound] | – | weakly up taken up into the pharynx and gut cells of the C. elegans larvae, as well as by adult nematodes mainly in the gut cells with lesser amount in the pharynx | – | – | – | – | – | the larva showed no increased uptake, with very minor amounts of compound 12 located in the pharynx and the gut cells | only the gut cells of the larvae showed the presence of small amounts of fluorescence; also recorded: In the case of the adult stages, fluorescence was visible in the gut lumen, gut cells and pharynx | remained viable with no apparent detrimental effect |
